From patent US8901116B2, “Method for treating pain, anxiety or depression using carbamoyloxy alkanoyl piperazine compound” (SK Biopharmaceuticals Co., Ltd., priority 2007, dated 2014)
Counter-ions that a name gives are not always drawn.

Columns and labels:
Type in all cases: in vivo
male ICR mouse [1] = test: Acetic acid-induced writhing test in mouse; conditions: po, p.o, acetic acid i.p. 1 hour after dosing, writhing counted for 10 minutes, read-out: Writhing Test Suppression of pain response
Method: An acetic acid-induced writhing test is one of models for measuring an analgesic effect of drugs. A test material dissolved in a suitable vehicle was orally administered to a male ICR mouse weighing 30 to 35 g at an amount of 10 mg/kg. After 1 hour of the oral administration, […] of an aqueous 0.8% acetic acid solution was intraperitoneally injected into the male ICR mouse to induce the abdominal pain of the male ICR mouse. Right after the administration of acetic acid, the male ICR mouse was put into an empty cage, and the number of writhing behaviors of the mice was counted for 10 minutes. The term “writhing” represents a reflex action in which the mouse overtly extends its abdomen by stretching its hind legs due to the abdominal pain. The analgesic effect of the test material is represented by the ‘suppression of pain response’ {[(Writhing number of vehicle-administered group−Writhing number of Test material—administered group)/(Writhing number of Solvent-administered group)]×100%}.

male ICR mouse [2] = test: Head twitch potentiation induced by 5-HTP (5-HTP potentiation test) in mouse; conditions: po, 0.5 h, p.o, 5-HTP 80 mg/kg + Carbidopa 25 mg/kg i.p. 30 minutes after dosing, head twitches counted for 2 minutes, negative = 5-HT2A antagonist, read-out: 5-HTP Potentiation Increase rate in Head Twitch No.
Method: When 5-hydroxy-L-tryptophan (5-HTP) is administered into a mouse, a head twitch phenomenon is observed since serotonin is increasingly secreted in the mouse. […] By using this principle, it is possible to search an effect of the representative antidepressant agent. A test material dissolved in a suitable vehicle was orally administered to a male ICR mouse weighing 20 to 25 g at an amount of 30 mg/kg. After 30 minutes of the oral administration, 5-HTP (80 mg/kg) and 5-HTP peripheral decarbozylase inhibitor ‘Carbidopa’ (25 mg/kg) were intraperitoneally administered to the mouse. After 30 minutes of the intraperitoneal administration, the mouse was put into an observation cage, and head twitches of the mouse were counted for 2 minutes. The anti-depression effect of the test material is represented by the ‘Increase rate in Head Twitch No.’ {[(Head Twitch No. of Test material-administered group−Head Twitch No. of vehicle-administered group)/(Head Twitch No. of vehicle-administered group)]×100%}. […] In addition to the selective serotonin reuptake inhibitor (SSRI) that has been widely used as an antidepressant agent in the clinical fields, it was tested that 5-HT2A antagonists such as nefazodone and trazodone also have an antidepressant effect.

male ICR mouse [3] = test: Hot plate test in mouse; conditions: po, p.o, 1 hour after dosing, hot plate 55° C., read-out: Hot Plate Test Increase in latency of avoidance response
Method: A hot plate test is one of representative models for measuring an analgesic effect of drugs. A test material dissolved in a suitable vehicle was orally administered to a male ICR mouse weighing 25 to 30 g at an amount of 30 mg/kg. After 1 hour of the oral administration, the mouse was put on a hot plate (55° C.). A latency was recorded from the time right after a mouse is put on a hot plate to the time when avoidance responses (flinching, licking, jumping, etc.) to pain are observed from forefeet or rear legs of the mouse. The analgesic effect of the test material is represented by the ‘Increase in latency of avoidance response’ {[(Latency of avoidance response to pain of Test material-administered group−Latency of avoidance response to pain of vehicle-administered group)/(Latency of avoidance response to pain of Solvent-administered group)]×100%}.

male ICR mouse [4] = test: Elevated plus maze (EPM) test in mouse; conditions: po, p.o, 1 hour after dosing, 5 minutes observation, read-out: Elevated Plus Maze Change index in Open-Arm Time
Description: Elevated plus maze (EPM) is one of representative models that examine an anti-anxiety activity of a test material. Equipment used for an EPM test has a crossroad shape raised in a high position off the ground, and is configured in such a cliff shape that both sides of one road are protected with high walls and the other road is free from the wall. Among them, the road in the cliff shape is referred to as an ‘open arm,’ and the road protected by the walls is referred to as a ‘close arm.’ In this case, a level of the anxiety of a mouse may be measured by determining in which arm the mouse stays longer. In general, the mouse stays longer in the close arm than the open arm, but a mouse treated with a medicine showing an anti-anxiety effect stays relatively longer in the open arm. A test material dissolved in a suitable vehicle was orally administered to a male ICR mouse weighing 20 to 25 g at an amount of 10 mg/kg. After 1 hour of the oral administration, the mouse was put on the center of an EPM equipment to measure how long the mouse stays in the open arm within a time range of 5 minutes. The anti-anxiety effect of the test material is represented by the ‘Change index in Open-Arm Time’ {[(open arm duration in test material-administered group−open arm duration in vehicle-administered group)/(open arm duration in vehicle administered group)]×100%}.

| SMILES | inhibition in vivo at 10 mg/kg (male ICR mouse [1]) [%] | change in vivo at 30 mg/kg (male ICR mouse [2]) [%] | change in vivo at 30 mg/kg (male ICR mouse [3]) [%] | change in vivo at 10 mg/kg (male ICR mouse [4]) [%] |
| --- | --- | --- | --- | --- |
| COc1ccc(N2CCN(C(=O)CC(OC(N)=O)c3ccc([N+](=O)[O-])cc3)CC2)cc1OC (stereo not shown) [Example 36, carbamic acid 3-[4-(3,4-dimethoxy-phenyl)-piperazin-1-yl]-1-(4-nitro-phenyl)-3-oxo-propyl ester; hydrochloride] | 42 | 93.8 | 20.5 | 35.3 |
| Cc1ccc(N2CCN(C(=O)C[C@@H](OC(N)=O)c3ccccc3)CC2)cc1 [Example 80, (R)-carbamic acid 3-[4-(4-methyl)-phenylpiperazin-1-yl]-3-oxo-1-phenyl-propyl ester] | 36.3 | 12.5 | 16.7 | 41.2 |
| NC(=O)OC(CC(=O)N1CCN(c2cc(Cl)cc(Cl)c2)CC1)c1ccccc1 (stereo not shown) [Example 10, carbamic acid 3-[4-(3,5-dichloro-phenyl)-piperazin-1-yl]-3-oxo-1-phenyl-propyl ester] | 26 | 85.7 | 14.8 | 27.3 |
| NC(=O)O[C@@H](CC(=O)N1CCN(c2ccc(F)c(F)c2)CC1)c1ccccc1 [Example 64, (S)-carbamic acid 3-[4-(3,4-difluoro-phenyl)-piperazin-1-yl]-3-oxo-1-phenyl-propyl ester] | 41.1 | 134 | 33 | 125 |
| COc1ccc(N2CCN(C(=O)CC(OC(=O)N(C)C)c3ccccc3)CC2)cc1 (stereo not shown) [Example 19, dimethyl-carbamic acid 3-[4-(4-methoxy-phenyl)-piperazin-1-yl]-3-oxo-1-phenyl-propyl ester] | 34.2 | 60 | 49.4 | 0 |
| NC(=O)OC(CC(=O)N1CCN(c2cccc(F)c2)CC1)c1ccccc1 (stereo not shown) [Example 30, carbamic acid 3-[4-(3-fluoro-phenyl)-piperazin-1-yl]-3-oxo-1-phenyl-propyl ester] | 9.2 | 40 | 27.1 | 102 |
| Cc1ccc(N2CCN(C(=O)C[C@H](OC(N)=O)c3ccccc3)CC2)cc1 [Example 81, (S)-carbamic acid 3-[4-(4-methyl)-phenylpiperazin-1-yl]-3-oxo-1-phenyl-propyl ester] | 20.1 | -21.4 | 9.2 | 23 |
| COc1ccc(N2CCN(C(=O)C[C@@H](OC(N)=O)c3ccccc3)CC2)cc1 [Example 70, (R)-carbamic acid 3-[4-(4-methoxy-phenyl)-piperazin-1-yl]-3-oxo-1-phenyl-propyl ester] | 59.8 | 87.9 | 30.6 | 109 |
| O=C1Nc2ccccc2C(CC(=O)N2CCN(c3ccccc3)CC2)O1 (stereo not shown) [Example 77, 4-[2-oxo-2-(4-phenyl-piperazin-1-yl)-ethyl]-1,4-dihydro-benzo[d][1,3]oxazin-2-one] | 26.4 | 25 | 30.4 | 4.9 |
| NC(=O)O[C@H](CC(=O)N1CCN(c2ccc(Cl)c(Cl)c2)CC1)c1ccccc1 [Example 68, (R)-carbamic acid 3-[4-(3,4-dichloro-phenyl)-piperazin-1-yl]-3-oxo-1-phenyl-propyl ester] | 51 | -28.6 | 15.7 | 1.5 |
| NC(=O)OC(CC(=O)N1CCN(c2ccc(O)cc2)CC1)c1ccccc1 (stereo not shown) [Example 18, carbamic acid 3-[4-(4-hydroxy-phenyl)-piperazin-1-yl]-3-oxo-1-phenyl-propyl ester] | 30.6 | -23.4 | 26.4 | 16.1 |
| CC(=O)Oc1ccc(N2CCN(C(=O)CC(OC(N)=O)c3ccccc3)CC2)cc1 (stereo not shown) [Example 23, acetic acid 4-[4-(3-carbamoyloxy-3-phenyl-propionyl)-piperazin-1-yl]-phenyl ester] | 21.1 | 100 | 29.4 | -25.1 |
| NC(=O)OC(CC(=O)N1CCN(c2ccccc2)CC1)c1ccoc1 (stereo not shown) [Example 49, carbamic acid-1-furan-3-yl-3-oxo-3-(4-phenyl-piperazin-1-yl)-propyl ester] | 34.4 | -20 | 20.6 | 48.9 |
| NC(=O)OC(CC(=O)N1CCN(c2ccc(Cl)c(C(F)(F)F)c2)CC1)c1ccccc1 (stereo not shown) [Example 27, carbamic acid 3-[4-(4-chloro-3-trifluoromethyl-phenyl)-piperazin-1-yl]-3-oxo-1-phenyl-propyl ester] | 29.1 | -78.1 | 41.2 | 66.7 |
| NC(=O)O[C@@H](CC(=O)N1CCN(c2ccc(O)cc2)CC1)c1ccccc1 [Example 84, (S)-carbamic acid 3-[4-(4-hydroxy)-phenylpiperazin-1-yl]-3-oxo-1-phenyl-propyl ester] | 32 | -37.5 | 13.5 | 65.6 |
| NC(=O)OC(CC(=O)N1CCN(c2ccccc2)CC1)c1ccccc1Cl (stereo not shown) [Example 43, carbamic acid 1-(2-chloro-phenyl)-3-oxo-3-(4-phenyl-piperazin-1-yl)-propyl ester] | 46 | 211 | 26.7 | 19.7 |
| NC(=O)OC(CC(=O)N1CCN(c2ccc(F)cc2)CC1)c1ccccc1 (stereo not shown) [Example 1, carbamic acid 3-[4-(4-fluoro-phenyl)-piperazin-1-yl]-3-oxo-1-phenyl-propyl ester] | 73.5 | -65.7 | 17 | 25.6 |
| COc1cc(OC)cc(N2CCN(C(=O)CC(OC(N)=O)c3ccccc3)CC2)c1 (stereo not shown) [Example 11, carbamic acid 3-[4-(3,5-dimethoxy-phenyl)-piperazin-1-yl]-3-oxo-1-phenyl-propyl ester] | 5.5 | 31.3 | 46.1 | 19.8 |
| NC(=O)O[C@H](CC(=O)N1CCN(c2ccc(F)c(F)c2)CC1)c1ccccc1 [Example 67, (R)-carbamic acid 3-[4-(3,4-difluoro-phenyl)-piperazin-1-yl]-3-oxo-1-phenyl-propyl ester] | 45.1 | 58.8 | 34.3 | 34.3 |
